Experimental data reported in ChEMBL document CHEMBL1201862, “PubChem BioAssay data set” (2004).
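Results reflect a 48-hour exposure of cells in 96-well plates to compound at five concentrations. Here, GI50 denotes the concentration required for 50% inhibition of growth.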 Activity calls are given as the source filed them. No stated cut-off is given here; in the data, active = GI50 up to about 1.1 µM and inactive = higher.

Legend:
Assay in all cases: NCI anticancer screen, dose series, 48 h
786-0 = system: 786-0
A498 = system: A498
HCT-15 = system: HCT-15
HOP-92 = system: HOP-92
HT-29 = system: HT-29
KM-20L2 = system: KM-20L2
MOLT-4 = system: MOLT-4
OVCAR-3 = system: OVCAR-3
RXF 393 = system: RXF 393
SK-MEL-2 = system: SK-MEL-2
SN12C = system: SN12C
SNB-19 = system: SNB-19
UACC-62 = system: UACC-62
HOP-62 = system: HOP-62
NCI-H522 = system: NCI-H522
BT-549 = system: BT-549
DU-145 = system: DU-145
MDA-MB-435 = system: MDA-MB-435
NCI/ADR-RES = system: NCI/ADR-RES
T47D = system: T47D

| Structure (SMILES) | GI50 (786-0) | GI50 (A498) | GI50 (HCT-15) [µM] | GI50 (HOP-92) | GI50 (HT-29) | GI50 (KM-20L2) | GI50 (MOLT-4) | GI50 (OVCAR-3) | GI50 (RXF 393) | GI50 (SK-MEL-2) | GI50 (SN12C) | GI50 (SNB-19) | GI50 (UACC-62) | GI50 (HOP-62) | GI50 (NCI-H522) | GI50 (BT-549) | GI50 (DU-145) | GI50 (MDA-MB-435) | GI50 (NCI/ADR-RES) | GI50 (T47D) |
| --- | --- | --- | --- | --- | --- | --- | --- | --- | --- | --- | --- | --- | --- | --- | --- | --- | --- | --- | --- | --- |
| c1ccc(-c2nnc3nn4c(-c5ccccc5)cnnc4c3c2-c2ccccc2)cc1 | 0.0794 µM (active) | > 100 µM (inactive) | > 100 | 59.8 µM (inactive) | 95.3 µM (inactive) | 95.3 µM (inactive) | > 100 µM (inactive) | 26.4 µM (inactive) | 14.7 µM (inactive) | > 100 µM (inactive) | > 100 µM (inactive) | 25.2 µM (inactive) | 32.1 µM (inactive) | – | – | – | – | – | – | – |
| COC(=O)c1ccccc1/N=C/c1ccc(N(CCC#N)S(=O)(=O)c2ccccc2)cc1 | > 100 µM (inactive) | > 100 µM (inactive) | > 100 | > 100 µM (inactive) | > 100 µM (inactive) | > 100 µM (inactive) | > 100 µM (inactive) | > 100 µM (inactive) | > 100 µM (inactive) | > 100 µM (inactive) | > 100 µM (inactive) | > 100 µM (inactive) | > 100 µM (inactive) | > 100 µM (inactive) | > 100 µM (inactive) | – | – | – | – | – |
| C[C@H](OCc1ccccc1)C(=O)N1CCS(=O)(=O)N2CCC[C@H]2C1=O | > 100 µM (inactive) | > 100 µM (inactive) | > 100 | > 100 µM (inactive) | > 100 µM (inactive) | > 100 µM (inactive) | > 100 µM (inactive) | > 100 µM (inactive) | > 100 µM (inactive) | – | > 100 µM (inactive) | > 100 µM (inactive) | > 100 µM (inactive) | > 100 µM (inactive) | > 100 µM (inactive) | – | – | – | – | – |
| O=[N+]([O-])/C=C/c1ccc(Cl)cc1Cl | 15.6 µM (inactive) | – | 15 | 15.3 µM (inactive) | 5.77 µM (inactive) | 18.7 µM (inactive) | 15.8 µM (inactive) | 19.9 µM (inactive) | – | 20.3 µM (inactive) | – | 17.8 µM (inactive) | 15.7 µM (inactive) | 14.2 µM (inactive) | 14.6 µM (inactive) | – | – | – | – | – |
| CCN(CC)c1ccc2c(c1)N=C1N=CC=CN1C2(c1ccc(N(C)C)cc1)c1ccc(N(C)C)cc1 | 7.73 µM (inactive) | 17.5 µM (inactive) | 10.9 | 2.82 µM (inactive) | 3.12 µM (inactive) | 2.97 µM (inactive) | 2.47 µM (inactive) | 3.16 µM (inactive) | 8.57 µM (inactive) | 12.6 µM (inactive) | 5.27 µM (inactive) | 11.4 µM (inactive) | 10.7 µM (inactive) | 10.9 µM (inactive) | 1.74 µM (inactive) | – | – | – | – | – |
| CN1C(=O)C(Cl)(C(Cl)(Cl)S(=O)(=O)O)C(=O)c2ccccc21.c1ccncc1 (stereo not drawn) | > 100 µM (inactive) | > 100 µM (inactive) | – | > 100 µM (inactive) | 25.7 µM (inactive) | 19.5 µM (inactive) | > 100 µM (inactive) | > 100 µM (inactive) | 53.7 µM (inactive) | – | > 100 µM (inactive) | > 100 µM (inactive) | > 100 µM (inactive) | > 100 µM (inactive) | 44.9 µM (inactive) | – | – | – | – | – |
| COC(=O)C1=C(c2ccc(OC)c(OC)c2)OC(c2ccc(OC)c(OC)c2)C1 (stereo not drawn) | 31.6 µM (inactive) | 12.7 µM (inactive) | 25.2 | 13.8 µM (inactive) | 22.3 µM (inactive) | 39.4 µM (inactive) | 8.17 µM (inactive) | 33.9 µM (inactive) | 25.6 µM (inactive) | 57.9 µM (inactive) | 27.9 µM (inactive) | – | 35.6 µM (inactive) | 59.4 µM (inactive) | – | – | – | – | – | – |
| COC[C@@H](/N=C/N1CCc2cc(OC)c(OC)cc2C1)C(C)(C)C | > 100 µM (inactive) | – | > 100 | > 100 µM (inactive) | > 100 µM (inactive) | > 100 µM (inactive) | > 100 µM (inactive) | > 100 µM (inactive) | > 100 µM (inactive) | – | > 100 µM (inactive) | > 100 µM (inactive) | > 100 µM (inactive) | > 100 µM (inactive) | > 100 µM (inactive) | – | – | – | – | – |
| COc1ccc(OC)c(CCc2ccccc2CC(=O)O)c1 | > 100 µM (inactive) | > 100 µM (inactive) | > 100 | > 100 µM (inactive) | > 100 µM (inactive) | > 100 µM (inactive) | > 100 µM (inactive) | > 100 µM (inactive) | > 100 µM (inactive) | > 100 µM (inactive) | > 100 µM (inactive) | > 100 µM (inactive) | > 100 µM (inactive) | – | > 100 µM (inactive) | – | – | – | – | – |
| O=C(N/C(=C\c1cccc([N+](=O)[O-])c1)c1nc2cc([N+](=O)[O-])ccc2[nH]1)c1ccccc1 | 36.1 µM (inactive) | – | 22.1 | 21.4 µM (inactive) | 44.4 µM (inactive) | 23.1 µM (inactive) | 12.2 µM (inactive) | 40.6 µM (inactive) | 12.8 µM (inactive) | 24.3 µM (inactive) | 39.4 µM (inactive) | 45.4 µM (inactive) | 19.7 µM (inactive) | – | 18.3 µM (inactive) | – | – | – | – | – |
| C1=CC2CCC1CN2CCC1CNc2ccccc21 (stereo not drawn) | > 100 µM (inactive) | > 100 µM (inactive) | – | > 100 µM (inactive) | > 100 µM (inactive) | > 100 µM (inactive) | > 100 µM (inactive) | > 100 µM (inactive) | 75.3 µM (inactive) | > 100 µM (inactive) | > 100 µM (inactive) | > 100 µM (inactive) | > 100 µM (inactive) | > 100 µM (inactive) | > 100 µM (inactive) | – | – | – | – | – |
| CC(C)C(Nc1c2ccccc2nc2ccccc12)C(=O)O (stereo not drawn) | > 100 µM (inactive) | – | > 100 | 29.2 µM (inactive) | 59.7 µM (inactive) | > 100 µM (inactive) | 38.7 µM (inactive) | 94.2 µM (inactive) | > 100 µM (inactive) | > 100 µM (inactive) | > 100 µM (inactive) | > 100 µM (inactive) | > 100 µM (inactive) | – | > 100 µM (inactive) | – | – | – | – | – |
| CNS(=O)(=O)NNS(=O)(=O)c1ccc2ccccc2c1 | > 100 µM (inactive) | > 100 µM (inactive) | > 100 | – | > 100 µM (inactive) | > 100 µM (inactive) | > 100 µM (inactive) | > 100 µM (inactive) | – | > 100 µM (inactive) | > 100 µM (inactive) | > 100 µM (inactive) | > 100 µM (inactive) | > 100 µM (inactive) | > 100 µM (inactive) | – | – | – | – | – |
| COC(=O)/C=C1/CCC2[C@@H](C(=O)CC3[C@]2(C)CCC[C@@]3(C)C(=O)OC)C1C (stereo partly drawn) | 14.9 µM (inactive) | 17.7 µM (inactive) | 14 | 5.13 µM (inactive) | 5.64 µM (inactive) | 13.1 µM (inactive) | 4.04 µM (inactive) | 7.67 µM (inactive) | – | 16 µM (inactive) | 15.3 µM (inactive) | 17.4 µM (inactive) | 10.7 µM (inactive) | 21.9 µM (inactive) | 5.07 µM (inactive) | – | – | – | – | – |
| CCOc1ccc(/C=C\c2cc(OC)c(OC)c(OC)c2)cc1 | 0.000216 µM (active) | 0.00124 µM (active) | 0.027 | 0.000828 µM (active) | 0.000131 µM (active) | 0.000241 µM (active) | 0.000634 µM (active) | 0.000303 µM (active) | < 0.0001 µM (active) | 0.00378 µM (active) | 0.00129 µM (active) | 0.000165 µM (active) | 0.01 µM (active) | 0.000964 µM (active) | < 0.0001 µM (active) | – | – | – | – | – |
| O=c1cc(-c2ccccc2)oc2cc(O)cc(O)c12 [CHRYSIN] | 23.6 µM (inactive) | – | 20.4 | 16.4 µM (inactive) | 23.4 µM (inactive) | 23.9 µM (inactive) | 18.3 µM (inactive) | 28.8 µM (inactive) | – | 17.9 µM (inactive) | 17.9 µM (inactive) | 18.5 µM (inactive) | 21.5 µM (inactive) | 31.4 µM (inactive) | 15.9 µM (inactive) | – | – | – | – | – |
| C=C(CC)C(=O)c1ccc(OCC(=O)O)c(Cl)c1Cl [ETHACRYNIC ACID] | 6.93 µM (inactive) | 35.8 µM (inactive) | 22.6 | 12.2 µM (inactive) | 17.9 µM (inactive) | – | 20.2 µM (inactive) | 16.1 µM (inactive) | 18.2 µM (inactive) | 17.1 µM (inactive) | 20 µM (inactive) | 15.6 µM (inactive) | 15.2 µM (inactive) | 20.5 µM (inactive) | 14.8 µM (inactive) | 4.99 µM (inactive) | 29.5 µM (inactive) | 17.5 µM (inactive) | 26.7 µM (inactive) | 9.35 µM (inactive) |
| CCCCCC/C=C\CCCCCCCCCc1cccc(O)c1C(=O)O [GINKGOLIC ACID 17:1] | > 100 µM (inactive) | > 100 µM (inactive) | 32.6 | > 100 µM (inactive) | > 100 µM (inactive) | – | 83.8 µM (inactive) | > 100 µM (inactive) | > 100 µM (inactive) | 31.7 µM (inactive) | > 100 µM (inactive) | 61.1 µM (inactive) | 34 µM (inactive) | > 100 µM (inactive) | > 100 µM (inactive) | > 100 µM (inactive) | > 100 µM (inactive) | > 100 µM (inactive) | > 100 µM (inactive) | > 100 µM (inactive) |
| CC[C@H](C)C(=O)O[C@H]1C[C@@H](C)C=C2C=C[C@H](C)[C@H](CC[C@@H]3C[C@@H](O)CC(=O)O3)[C@H]21 [LOVASTATIN] | 9.77 µM (inactive) | 1.21 µM (inactive) | 3.12 | 0.0308 µM (active) | 11.6 µM (inactive) | > 30 µM (inactive) | 26.8 µM (inactive) | > 30 µM (inactive) | 2.52 µM (inactive) | 13.2 µM (inactive) | 1.71 µM (inactive) | – | 1.53 µM (inactive) | 13.1 µM (inactive) | – | – | – | – | – | – |
